Assay results: patent US20240173320A1, “METHODS OF USING EHMT2 INHIBITORS IN IMMUNOTHERAPIES” (Epizyme, Inc., priority 2017, published 2024)
“Also recorded” adds a separate entry of the source.

Experiments:
[1] = tested on: naive CD4 T cells isolated from human PBMCs; assay: T regulatory (Treg) cell polarization of naive CD4 T cells, flow cytometry for CD25 and Foxp3; type: cell-based; settings: for Treg polarization: naive CD4 T cells from healthy donor PBMCs, six days, Foxp3 and CD25 by flow cytometry (Example 3, FIGS. 3, 4A-4B)
Procedure: (§1) To evaluate the effects of Compounds on T regulatory (Treg) and Th17 cell polarization, naive CD4 T cells were isolated from human peripheral blood mononuclear cells (PBMCs) using magnetic bead separation and cultured with or without compound in the presence of Treg or Th17 polarizing cytokines. For Treg polarization, naive cells were cultured for five days with anti-CD3, anti-CD28, TL-2 and TGFβ. After five days, the cells were then evaluated for CD25 and Foxp3 expression by flow cytometry. For Th17 polarization, naive cells were cultured for 10-11 days with anti-CD3, anti-CD28, […], IL-6, IL-23, TGFβ, anti-IFNγ antibody and anti-IL-4 antibody. After 10-11 days cells were stimulated and then evaluated for IL-17 and IFNγ by flow cytometry.
(§2) To evaluate the effects of Compound 571 on Treg cell polarization, naive cells were isolated from human peripheral blood mononuclear cells (PBMCs), stimulated with coated CD3 antibody and soluble CD28 antibody, and cultured with or without compound in the presence of Treg polarizing cytokines for five days, as described in [0601]. Compound was replenished at either day three or day four.
(§3) Naive CD4 T cells were isolated from healthy donor PBMCs using magnetic bead separation and were incubated for six days with cytokine cocktail to promote polarization to T regulatory cells, as described in [0601]. Cells were simultaneously treated with various concentrations of G9a inhibitors, with compound replenishment occurring at either day three or day four. Polarization to T regulatory cells was assessed by flow cytometry using Foxp3 and CD25. Methyl mark (H3K9me2) was also assessed by flow cytometry.

[2] = tested on: naive CD4 T cells isolated from human PBMCs; assay: Th17 cell polarization of naive CD4 T cells, flow cytometry for IL-17 and IFNγ; type: cell-based; settings: for percentage of polarized Th17 cells: naive cells from human PBMCs, Th17 polarizing cytokines, 11 days, IL-17 and IFNγ by flow cytometry (Example 2, FIGS. 1B, 2)
Procedure: as §1
as §2, with “of Compounds 205 and” for “of Compound”, “on Th17” for “on Treg”, “of Th17” for “of Treg”, “for 11 days” for “for five days,”, “four. After 11 days of treatment, cells were stimulated with PMA, ionomycin, brefeldin A and monensin, and then evaluated for IL-17 and IFNγ by flow cytometry.” for “four.”
as §3, with “incubated” for “incubated for six days”, “Th17” for “T regulatory”, “at” for “at either”, “or” for “or day”, “IL-17A” for “Foxp3”, “IFNy.” for “CD25.”

H3K9me2 [3] = assay: Methyl mark (H3K9me2) by flow cytometry under Treg polarizing conditions; type: cell-based, human; settings: naive CD4 T cells from healthy donor PBMCs, six days, flow cytometry (Example 3, FIGS. 3, 4A-4B)
Procedure: as §3

H3K9me2 [4] = assay: Methyl mark (H3K9me2) by flow cytometry under Th17 polarizing conditions; type: cell-based, human; settings: naive CD4 T cells from healthy donor PBMCs, flow cytometry (Example 4, FIGS. 5, 6A-6B)
Procedure: as §3, with “incubated” for “incubated for six days”, “Th17” for “T regulatory”, “at” for “at either”, “or” for “or day”, “IL-17A” for “Foxp3”, “IFNy.” for “CD25.”

| SMILES | Treg polarization [1] | percentage of polarized Th17 cells [2] | H3K9me2 (methyl mark) under Treg polarization (H3K9me2 [3]) | H3K9me2 (methyl mark) under Th17 polarization (H3K9me2 [4]) | polarized Treg cells ([1]; naive cells from human PBMCs, Treg polarizing cytokines, five days (Example 2, FIG. 1A)) | Th17 polarization ([2]; naive CD4 T cells from healthy donor PBMCs, IL-17A and IFNγ by flow cytometry (Example 4, FIG. 5)) |
| --- | --- | --- | --- | --- | --- | --- |
| CNc1cc(C)nc(Nc2ccc(OC)c(OCCCN3CCCC3)c2)n1 [Compound 205] | increased | dose-dependent increase | decreased | decreased | – | – |
| CCN1CC[C@@H](COc2cc(Nc3nc(C)cc(NC)n3)ccc2OC)C1 [Compound 571] | – | dose-dependent increase | – | – | anin polarized Treg cells | – |
| CNC1=Nc2cc(C#CCN3CCCCC3)c(OC)cc2C12CCC2 [Compound A75] | increased | – | decreased | decreased | – | – |
| CNCc1cnn(-c2cc(Nc3nc(C)cc(NC)n3)ccc2OC)c1 [Compound D6] | dose-dependent increase; also recorded: increased | – | dose-dependent decrease; also recorded: decreased | dose-dependent decrease; also recorded: decreased | – | dose-dependent increase |
